Read-outs that look alike come from different tables or passages of the source.
Legend:
[1] = biological target: T1, human TRPA1 (Homo sapiens, UniProt O75762, K186N/R3C/R58T); assay: Intracellular calcium (Fluo-4, FLIPR) activation of TRPA1 cells by GRAS compounds; assay type: cell-based;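 further: TRPA1-expressing cells, fluorescence read on a FLIPR Tetra (ex 488 nm, em 514 nm) every 2 s for 10 min after compound addition, baseline subtracted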
T1 construct: expressed in transfected cells; pcDNA3 control cells

[2] = tested on: TRPA1V1; assay: Intracellular calcium (Fluo-4, FLIPR) activation of TRPA1V1 cells (co-expressing TRPA1 and TRPV1) by GRAS compounds; assay type: cell-based, human; details: relative to AITC 30 μM;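 further: HEK293 cells co-expressing TRPA1 and TRPV1, fluorescence read at 488/514 nm after baseline subtraction, recorded every 2 s over 10 min, ionomycin 10 µM and buffer as controls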
[3] = Table 1(d), 1 mM, relative to AITC 30 μM
[4] = Table 1(c), 1 mM, relative to AITC 30 μM
[5] = Table 1(c), 1 mM, relative to AITC 30 μM, read-out: A1 activation, % of agonist value
[6] = Table 1(c), 100 μM (*), relative to AITC 30 μM
[7] = Table 1(d), 1 mM, relative to AITC 30 μM, read-out: A1 activation, % of agonist value
[8] = read-out: A1 activation, % of agonist value

T1 sequence (O75762 whole entry R3C/R58T/K186N): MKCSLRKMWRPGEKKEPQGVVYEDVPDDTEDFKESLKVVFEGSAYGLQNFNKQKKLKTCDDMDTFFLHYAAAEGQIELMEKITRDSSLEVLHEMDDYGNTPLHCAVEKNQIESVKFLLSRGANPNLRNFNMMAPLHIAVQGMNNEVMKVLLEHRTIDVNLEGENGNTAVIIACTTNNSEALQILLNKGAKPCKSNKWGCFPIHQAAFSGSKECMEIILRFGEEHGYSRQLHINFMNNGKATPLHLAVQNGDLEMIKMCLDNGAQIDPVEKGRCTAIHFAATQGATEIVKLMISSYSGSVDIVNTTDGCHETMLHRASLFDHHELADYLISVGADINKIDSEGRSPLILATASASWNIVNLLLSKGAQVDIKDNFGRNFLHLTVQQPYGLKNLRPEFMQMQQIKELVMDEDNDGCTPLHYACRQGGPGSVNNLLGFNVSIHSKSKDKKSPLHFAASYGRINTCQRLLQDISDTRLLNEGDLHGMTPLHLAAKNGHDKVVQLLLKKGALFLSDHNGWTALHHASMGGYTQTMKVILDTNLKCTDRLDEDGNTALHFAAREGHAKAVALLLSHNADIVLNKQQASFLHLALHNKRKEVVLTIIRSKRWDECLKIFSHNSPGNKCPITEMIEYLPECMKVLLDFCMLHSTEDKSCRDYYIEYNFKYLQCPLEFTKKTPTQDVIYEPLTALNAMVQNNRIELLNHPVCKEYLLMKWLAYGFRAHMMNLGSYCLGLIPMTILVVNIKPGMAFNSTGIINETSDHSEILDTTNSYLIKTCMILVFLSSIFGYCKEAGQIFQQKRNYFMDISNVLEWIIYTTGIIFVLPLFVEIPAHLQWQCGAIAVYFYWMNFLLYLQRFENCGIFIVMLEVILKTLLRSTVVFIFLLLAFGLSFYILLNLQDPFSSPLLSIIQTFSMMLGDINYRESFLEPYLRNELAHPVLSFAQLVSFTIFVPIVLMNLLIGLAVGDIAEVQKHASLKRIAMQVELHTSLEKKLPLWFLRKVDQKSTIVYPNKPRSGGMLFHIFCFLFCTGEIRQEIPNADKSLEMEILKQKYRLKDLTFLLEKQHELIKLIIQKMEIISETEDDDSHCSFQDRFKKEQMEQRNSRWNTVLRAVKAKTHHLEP

Compound	A1V1 activation, % of agonist value ([2]; Table 1(c), 1 mM) [%]	activation at 1000 µM [1, 5] [%]	further results
CCC(=O)C=CC1C(C)=CCCC1(C)C (centres unmarked)			A1 activation, % of agonist value [1, 3]: 97.3%; A1V1 activation, % of agonist value ([2]; Table 1(d), 1 mM): 69.7%
2-mercaptopropanoate			A1 activation, % of agonist value [1, 3]: 101.5%; A1V1 activation, % of agonist value ([2]; Table 1(d), 1 mM): 54.3%
3-mercaptopropanoate	41.8		A1 activation, % of agonist value [1, 4]: 42.7%
CC(=O)/C=C/C1C(C)=CCCC1(C)C (racemic) [(+/−)-Alpha-Ionone]	64.21		A1 activation, % of agonist value [1, 4]: 64.62%
CC(C)[C@@H]1CC[C@@H](C)C[C@H]1O (racemic) [DL-Menthol]	43.05		A1 activation, % of agonist value [1, 4]: 54.02%
C=C(C)C1CC=C(C)C(OC(C)=O)C1 (single isomer, unassigned; (-)) [(−)-Carvyl acetate]	37		A1 activation, % of agonist value [1, 4]: 31.2%
Cc1c(C(=O)O)c(O)cc2c1C(=O)c1c(O)c(C3O[C@H](CO)[C@@H](O)[C@H](O)[C@H]3O)c(O)c(O)c1C2=O (stereo in doubt) [Carmine]	61.54	66.2	
CC(S)CS (centres unmarked) [1,2-Propanedithiol]	73.3		A1 activation, % of agonist value [1, 6]: 65.8%; A1 activation, % of agonist value [1, 4]: 66%; A1V1 activation, % of agonist value ([2]; Table 1(c), 100 μM (*)): 65.4%
SCCCCCCS [1,6-Hexanedithiol]	54	68.6	
O=CC1=CCCCC1 [1-Cyclohexene-1-carboxaldehyde]	48.37	45.9	
C/C=C(\C)C(=O)OC(CC)CCCCC (centres unmarked) [1-Ethylhexyl Tiglate]			activation at 1000 µM [1, 7]: 50.6%; A1V1 activation, % of agonist value ([2]; Table 1(d), 1 mM): 31.87%
Cn1cccc1C=O [1-Methylpyrrole-2-carboxaldehyde]	87.70	81.1	
CCCCCC=CC=CCO [2,4-Decadienol]	52.2	48.6	
Cc1ccc(C=O)c(C)c1 [2,4-Dimethylbenzaldehyde]	102.8	107	
CC=CC=CCO [2,4-Hexadienol]	78.68	78	
CC=CC=CCOC(=O)CC [2,4-Hexadienyl propionate]	91.20	93.2	
CCCC=CC=CC=O [2,4-Octadienal]	82.7	80.9	
CC1(O)CSC(C)(O)CS1 (centres unmarked) [2,5-dimethyl-1,4-dithilane-2,5-diol]			A1 activation, % of agonist value [1, 6]: 77.5%; A1V1 activation, % of agonist value ([2]; Table 1(c), 100 μM (*)): 87.2%
Cc1cccc(C)c1S [2,6-Dimethylthiophenol]	85.5	84.4	
CC/C=C\CC/C=C/C(OCC)OCC [2,6-Nonadiene, 1,1-diethoxy-, (E,Z)-]	74.31	89.3	
CC(=O)c1ccc2ccccc2c1 [2-Acetylnaphthalene]	69.41	60.3	
O=C(CCl)c1ccccc1 [2-Chloroacetophenone]	103		activation at 100 µM [1, 8]: 93.6%; activation at 1000 µM [1, 8]: 91.4%; A1V1 activation, % of agonist value ([2]; Table 1(c), 100 μM (*)): 88.8%
CCCCCCCCCC=CC=O [2-Dodecenal]			activation at 1000 µM ([1]; Table 1(e), 1 mM, relative to AITC 30 μM, read-out: A1 activation, % of agonist value): 65.5%; A1V1 activation, % of agonist value ([2]; Table 1(e), 1 mM): 82.8%
CCC(CC)C(=O)O [2-Ethylbutyric acid]			activation at 1000 µM [1, 7]: 67.7%; A1V1 activation, % of agonist value ([2]; Table 1(d), 1 mM): 34.87%
Cc1ccc(CO)o1 [2-Furanmethanol, 5-methyl-]	76.02	77.3	
O=C(OCCc1ccccc1)c1ccco1 [2-Furoic acid, phenethyl ester]	145	155	
CC(=O)Cc1ccco1 [2-Furylacetone]	59.5	60.8	
Ammonium carbonate	58.42		
